The text below walks through data of ChEMBL document CHEMBL5649167, “The SUV4-20 inhibitor A-196 verifies a role for epigenetics in genomic integrity” (Nat Chem Biol, 2017).

In assay [1] the target is Histone-lysine N-methyltransferase KMT5C (Homo sapiens, UniProt Q86Y97). Put plainly: Inhibition of human SUV420H2 using Biotin-tagged H4K20me1 and [3H-SAM] as substrate incubated for 2 hrs by scintillation proximity assay.
Assay [2] deals with Histone-lysine N-methyltransferase KMT5B (Homo sapiens, UniProt Q4FZB7). The experiment in a line: Inhibition of recombinant human 6His-(Tev)-G-SUV420H1 (69 to 335 residues) using Biotin-tagged H4K20me1 and [3H-SAM] as substrate incubated for 2 hrs by scintillation proximity assay. (In general: Scintillation proximity formats need no separation of bound from free tracer.)
Sequence of Histone-lysine N-methyltransferase KMT5B (Q4FZB7 whole entry, the tested form may be a part): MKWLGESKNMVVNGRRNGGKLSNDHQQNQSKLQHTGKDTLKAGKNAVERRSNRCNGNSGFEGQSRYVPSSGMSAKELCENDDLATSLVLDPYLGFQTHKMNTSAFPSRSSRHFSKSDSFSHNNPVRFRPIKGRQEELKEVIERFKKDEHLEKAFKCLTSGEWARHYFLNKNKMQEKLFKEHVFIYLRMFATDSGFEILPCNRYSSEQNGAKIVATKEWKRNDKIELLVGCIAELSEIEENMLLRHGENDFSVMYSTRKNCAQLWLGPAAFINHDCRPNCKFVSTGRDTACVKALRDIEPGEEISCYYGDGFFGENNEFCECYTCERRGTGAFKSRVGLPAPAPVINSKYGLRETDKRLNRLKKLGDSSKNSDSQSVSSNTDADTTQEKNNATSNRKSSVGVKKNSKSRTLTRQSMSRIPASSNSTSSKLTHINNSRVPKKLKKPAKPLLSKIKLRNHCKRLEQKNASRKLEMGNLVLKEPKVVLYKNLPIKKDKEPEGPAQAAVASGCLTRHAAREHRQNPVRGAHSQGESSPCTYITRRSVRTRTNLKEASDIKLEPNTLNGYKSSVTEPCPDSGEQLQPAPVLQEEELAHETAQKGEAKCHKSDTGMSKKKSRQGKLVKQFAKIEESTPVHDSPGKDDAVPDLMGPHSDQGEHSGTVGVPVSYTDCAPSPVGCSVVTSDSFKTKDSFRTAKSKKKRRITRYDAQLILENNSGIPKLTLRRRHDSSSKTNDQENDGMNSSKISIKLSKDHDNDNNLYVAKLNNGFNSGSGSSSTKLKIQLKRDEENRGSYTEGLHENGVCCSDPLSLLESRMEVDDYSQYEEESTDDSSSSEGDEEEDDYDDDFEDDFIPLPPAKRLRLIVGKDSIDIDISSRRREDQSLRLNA

Sequence of Histone-lysine N-methyltransferase KMT5C (Q86Y97 whole entry, the tested form may be a part): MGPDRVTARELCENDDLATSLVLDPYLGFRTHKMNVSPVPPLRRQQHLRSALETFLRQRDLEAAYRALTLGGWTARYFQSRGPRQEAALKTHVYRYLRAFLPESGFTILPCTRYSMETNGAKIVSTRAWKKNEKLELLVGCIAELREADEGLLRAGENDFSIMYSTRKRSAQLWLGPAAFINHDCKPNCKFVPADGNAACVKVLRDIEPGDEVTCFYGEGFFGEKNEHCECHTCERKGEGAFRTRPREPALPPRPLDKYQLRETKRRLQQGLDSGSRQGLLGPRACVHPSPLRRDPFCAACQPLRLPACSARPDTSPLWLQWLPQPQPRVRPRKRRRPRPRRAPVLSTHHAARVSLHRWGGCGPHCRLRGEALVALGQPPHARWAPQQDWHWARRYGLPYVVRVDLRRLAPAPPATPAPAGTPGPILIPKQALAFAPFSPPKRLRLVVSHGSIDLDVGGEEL

As for `Clc1cc2nccc(NC3CCCC3)c2cc1Cl`, the IC50 (usually the concentration that gives 50% inhibition) in assay [1] was found to be 1.2 µM; in assay [2], 0.59 µM.

Consider `Clc1ccc2c(NC3CCCC3)ccnc2c1`, for which the IC50 in assay [1] stood at 4.8 µM; in assay [2], 5.9 µM.
